# Read-outs that look alike come from different tables or passages of the source.
# Experiments:
# Aβ1-42 fibres = Aβ1-42 fibres (Homo sapiens, UniProt P05067); assay: In vitro inhibition of ThT binding and determination of Ki (fluorescence), Aβ1-42 fibres; settings: vs Thioflavin T 500 nM; Aβ1-42 fibres 500 nM; PBS pH7.4, 1 h RT; read-out: Ki Aβ
# Method: (§1) To obtain fiber assembly, α-syn is incubated in Tris-HCl 50 mM pH7.5, KCl 150 mM at 37° C. under continuous agitation during 4 days. The lyophilized Aβ1-42 was dissolved in 1,1,1,3,3,3-Hexafluoro-2-propanol (HFIP) at 0.2 mg/mL and incubated for 24 h at 37° C. to obtain the complete solubilization. The HFIP is evaporated under nitrogen stream to obtain a dry product. To start the fiber assembly, the dry peptide is resuspended in PBS pH7.4, 10% (v/v) DMSO and incubated at 37° C. for 3 days without agitation.
# (§2) Protein fibers are systematically observed by electron microscopy (Jeol 1400). The images are recorded with a CCD camera (Gatan Orius). Finally, the percentage of α-syn and Aβ1-42 aggregated into fibers is checked on the pellet after centrifugation at 40000×g for 20 min and determination of the concentration of soluble protein/peptide remaining in the supernatant.
# (§3) The samples are incubated for 1 h at room temperature (RT) to reach equilibrium. […] From each curve, the IC50 value is measured using the following equation: Y=min+(max−min)/1+([…])^slope
# α-syn fibres = α-syn fibres (Homo sapiens (Human), UniProt P37840); assay: In vitro inhibition of ThT binding and determination of Ki (fluorescence), α-syn fibres; settings: for α-syn selectivity according to analysis of Ki (Table 5): selective = good affinity and at least two times greater than for at least one of the two other proteins; for Ki: vs Thioflavin T 500 nM, α-syn fibres 200 nM, PBS pH7.4, 1 h RT, read-out: Ki αsyn
# Method: as §1, §2, §3
# Tau fibres = Tau fibres (Homo sapiens (Human), UniProt P10636); assay: In vitro inhibition of ThT binding and determination of Ki (fluorescence), Tau fibres; settings: for Tau selectivity according to analysis of Ki (Table 5): selective = good affinity and at least two times greater than for at least one of the two other proteins
# Sequence of Tau fibres (P10636 other isoform, or with tags, fused parts or gaps): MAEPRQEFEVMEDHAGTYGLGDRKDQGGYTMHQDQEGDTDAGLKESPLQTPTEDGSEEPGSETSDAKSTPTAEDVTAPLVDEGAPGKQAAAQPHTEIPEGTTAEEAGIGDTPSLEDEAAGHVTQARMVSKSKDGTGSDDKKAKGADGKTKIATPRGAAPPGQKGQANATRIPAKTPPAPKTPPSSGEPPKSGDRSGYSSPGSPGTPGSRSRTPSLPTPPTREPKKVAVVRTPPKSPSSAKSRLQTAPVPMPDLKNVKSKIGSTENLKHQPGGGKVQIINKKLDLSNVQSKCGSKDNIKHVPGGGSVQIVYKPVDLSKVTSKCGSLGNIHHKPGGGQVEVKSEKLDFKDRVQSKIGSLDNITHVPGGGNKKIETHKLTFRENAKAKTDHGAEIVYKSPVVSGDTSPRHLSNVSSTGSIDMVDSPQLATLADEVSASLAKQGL
# Method: (§4) Tau protein in PBS buffer containing 1 mM DTT is assembled into fiber in the presence of one twelfth of a molar equivalent of heparin at 37° C. under stirring.
# as §3
# Aβ1-42 fibers [1] = molecular target: Aβ1-42 fibers (Homo sapiens, UniProt P05067); assay: In vitro direct determination of Kd and Bmax by fluorescence, Aβ1-42 fibers; format: binding; settings: for Aβ Bmax1: density of binding sites; for Aβ Bmax1 / Kd: direct fluorescence, Scatchard analysis; for Kd: Aβ1-42 fibers 500 nM, read-out: Aβ Kd1; for Aβ Bmax1 (number of sites/monomer): in brackets in the Bmax cell
# Sequence of Aβ1-42 fibers (Homo sapiens, UniProt P05067) (P05067 672-713 limits assumed): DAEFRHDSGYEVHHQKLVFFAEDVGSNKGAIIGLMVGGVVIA
# Method: as §1
# (§5) Fresh solutions of each test compound (2.5 mM in DMSO) are diluted in PBS pH=7.4 at concentrations between 0.5 nM and 5 μM in the presence or absence of α-syn (200 nM), Aβ1-42 (500 nM) or Tau (200 nM) fibers in a final 2 mL volume. After 1 h of incubation at RT, the binding of each compound to α-syn, A131-42 or Tau fibers is measured by fluorescence using the spectral changes of the compounds during their binding to the fibers, using the appropriate excitation/emission wavelengths (those giving the highest fluorescence variation during binding to the fibres). For each concentration of compound added to the fibres, the bound and free fractions are measured by fluorescence according to the following equation: Fm=FBB+FF×(T−B)
# (§6) The value of FF is determined by measuring the fluorescence of known concentrations of compounds in the absence of fibres. The FB value is determined by measuring the maximum fluorescence of known concentrations of compounds in the presence of saturated concentrations of α-syn, Aβ1-42, or Tau fibers.
# (§7) The values of B thus determined versus the concentrations of the free fractions (T-B) are analyzed according to the Michaelis-Menten equation. The affinity (Kd) and density of binding sites within the fibers of α-syn, Aβ1-42 or Tau (Bmax) are determined by Scatchard analysis, which also makes it possible to highlight multiple site classes.
# α-syn fibers = α-syn fibers (Homo sapiens (Human), UniProt P37840); assay: In vitro direct determination of Kd and Bmax by fluorescence, α-syn fibers; format: binding; settings: for αsyn Bmax1: density of binding sites; for αsyn Bmax1 / Kd: direct fluorescence, Scatchard analysis; for Kd: α-syn fibers 200 nM, read-out: αsyn Kd1; for αsyn Bmax1 (number of sites/monomer): in brackets in the Bmax cell; for α-syn selectivity according to analysis of Kd (Tables 6 and 7): selective = good affinity and at least two times greater than for at least one of the two other proteins
# Method: as §1, §5, §6, §7
# Tau fibers = Tau fibers (Homo sapiens (Human), UniProt P10636); assay: In vitro direct determination of Kd and Bmax by fluorescence, Tau fibers; format: binding; settings: for Tau Bmax1: density of binding sites; for Tau Bmax1 / Kd: direct fluorescence, Scatchard analysis; for Kd: Tau fibers 200 nM, read-out: Tau Kd1; for Tau Bmax1 (number of sites/monomer): in brackets in the Bmax cell; for Tau selectivity according to analysis of Kd (Tables 6 and 7): selective = good affinity and at least two times greater than for at least one of the two other proteins
# Sequence of Tau fibers (P10636 other isoform, or with tags, fused parts or gaps): as the sequence (P10636 other isoform, or with tags, fused parts or gaps) above
# Method: Human Tau protein (isoform h2N4RTau) is expressed in the vector pET11d in E. Coli (strain BL21 (DE3), (Stratagene, La Jolla, Calif.)) and purified according to the described method (Barghorn S, Biernat J, Mandelkow E. (2005) Methods Mol Biol. 299:35-51). The Tau purified concentration is determined by measuring the absorbance at 280 nm using a molar extinction coefficient of 7450 M^−1 cm^−1.
# as §4, §5
# Where Fm is the fluorescence measured in the presence of fibers at a concentration T of the compound added to the fibers, FB is the specific fluorescence of the bound compound, FF is the specific fluorescence of the free compound, and B is the concentration of the fiber bound compound at a given concentration T (Bell, J. E., “Fluorescence; Solution Studies”, Spectrometry in Biochemistry, vol. I, Bell, J. E., ed., CRC Press, Inc., Boca Raton, Fla., pp. 155-194 (1981)).
# as §6
# Thus, at each point, the concentration of bound compound B is determined according to the following equation: B=(Fm−FF×T)/(FB−FF)
# as §7
# Aβ1-42 fibers [2] = assay: In vitro direct determination of Kd and Bmax by fluorescence, Aβ1-42 fibers; format: binding; settings: selective = good affinity and at least two times greater than for at least one of the two other proteins
# Method: as §1, §5, §6, §7
# [3] = In vivo evaluation of fluorine-18-labelled tracer: PET/CT and tissue radioactivity (BBB crossing, bone fixation); settings: healthy adult male Wistar rat, intravenous injection of 18F tracer
# Method: The objective is to determine whether the tracer has the blood-brain barrier (BBB) crossing properties in sufficient quantities to be used as a PET imaging tracer. In addition, bone fixation can be qualified, which reflects the degree of defluorination of the tracer in vivo.
# Animal Model: Adult male rats of Wistar strain.
# In vivo study: the healthy animal receives an intravenous injection of the tracer test (molecule 28).
# From the moment of injection, imaging is carried out using a dedicated system (PET/CT) which records the intracerebral accumulation of radioactivity (Sérrière et al. Nucl. Med. Biol. 2014, 41:103-13; Sérrière et al. Neurobiol. Aging 2015, 36:1639-52). At the end of the imaging, the animal is euthanized; the brain and a bone fragment (femur) are collected, weighed and their radioactivity is measured. This method allows to precisely quantify the accumulation of the tracer in the tissues. The results are expressed as a percentage of the injected tracer dose/g of tissue (% DI/g).
# Sequence of Aβ1-42 fibres (P05067 672-713 limits assumed): as the sequence (P05067 672-713 limits assumed) above
Compound,Ki (Aβ1-42 fibres) [nM],α-syn selectivity according to analysis of Ki (Table 5) (α-syn fibres),Ki (α-syn fibres) [nM],Ki (Tau fibres) [nM],Tau selectivity according to analysis of Ki (Table 5) (Tau fibres),Aβ Bmax1 (Aβ1-42 fibers [1]) [nmol/μmol prot],Kd (Aβ1-42 fibers [1]) [nM],Aβ Bmax1 (number of sites/monomer) (Aβ1-42 fibers [1]),αsyn Bmax1 (α-syn fibers) [nmol/μmol prot],Kd (α-syn fibers) [nM],αsyn Bmax1 (number of sites/monomer) (α-syn fibers),α-syn selectivity according to analysis of Kd (Tables 6 and 7) (α-syn fibers),Tau Bmax1 (Tau fibers) [nmol/μmol prot],Kd (Tau fibers) [nM],Tau Bmax1 (number of sites/monomer) (Tau fibers),Tau selectivity according to analysis of Kd (Tables 6 and 7) (Tau fibers),Aβ selectivity according to analysis of Kd (Tables 6 and 7) (Aβ1-42 fibers [2]),"Passing of the BBB: brain accumulation, percentage of injected tracer dose/g of tissue ([3]; brain collected at end of imaging)","binding to bone: femur accumulation, percentage of injected tracer dose/g of tissue ([3]; femur at end of imaging, reflects defluorination) [% DI/g]","Ki (Tau fibres; vs Thioflavin T 500 nM, Tau fibres 200 nM, PBS pH7.4, 1 h RT) [nM]"
"CN(C)c1ccc(C#Cc2cc3cccnc3[nH]2)cc1 [Compound 22a, 4-((1H-Pyrrolo[2,3-b]pyridin-2-yl)ethynyl)-N,N-dimethylaniline]",24.5 ± 9,selective,4.7 ± 2,4.61 ± 0.2,selective,3.04 ± 0.6,11.8 ± 3,1/300,69.5 ± 20,0.53 ± 0.2,1/14,selective,93.0 ± 15,0.44 ± 0.1,1/10,selective,,,,
"CN(C)c1ccc(C#Cc2cc3ccncc3[nH]2)cc1 [Compound 22b, 4-((1H-Pyrrolo[2,3-c]pyridin-2-yl)ethynyl)-N,N-dimethylaniline]",91.5 ± 11,selective,28.7 ± 8,8.4 ± 2,selective,2.3 ± 0.8,5.2 ± 3,1/400,80.0 ± 42,1.4 ± 1,1/15,selective,37.1 ± 10,0.49 ± 0.2,1/30,selective,,,,
"CN(C)c1ccc(C#Cc2cc3ncccc3[nH]2)cc1 [Compound 22c, 4-((1H-Pyrrolo[3,2-b]pyridin-2-yl)ethynyl)-N,N-dimethylaniline]",21.3 ± 7,,26 ± 16,12 ± 1,selective,1.44 ± 0.6,2.9 ± 2,1/700,82.5 ± 5,3.25 ± 0.2,1/12,,26.5 ± 5,0.13 ± 0.05,1/40,selective,,,,
"CN(CCF)c1ccc(C#Cc2cc3cccnc3[nH]2)cc1 [Compound 28, 4-((1H-Pyrrolo[2,3-b]pyridin-2-yl)ethynyl)-N-(2-fluoroethyl)-N-methylaniline]",,,,,,1.8 ± 0.6,1.2 ± 1,1/600,141.5 ± 45,2.4 ± 1,1/7,,46.5 ± 5,0.97 ± 0.4,1/20,selective,selective,≈ 0.4 % DI/g,0.3,
"CC(=C(C#N)C#N)c1ccc2cc(N(C)CCF)ccc2c1 [FDDNP, reference compound]",4.6 ± 3,,25.1 ± 5,,,10.2 ± 1,4.2 ± 1,1/100,39.5 ± 10,16.1 ± 6,1/25,,138.5 ± 16,34.9 ± 6,1/7,,,,,9.5 ± 1
